Laboratory results reported in ChEMBL document CHEMBL1201862, “PubChem BioAssay data set” (2004).
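The compound was tested at five concentrations on cells cultured in 96-well plates, with a 48-hour exposure period. GI50 = concentration required for 50% inhibition of growth.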 Activity calls are given as the source filed them. Cut-off read from the data, not from the text of the source: active = GI50 up to about 1.1 µM and inactive = higher.

Experiments:
Experiment in all cases: NCI anticancer screen, dose series, 48 h
[1] = system: M19-MEL
[2] = system: LXFL 529
[3] = system: XF498
[4] = system: DMS-114
[5] = system: HOP-18
[6] = system: SNB-78
[7] = system: KM-20L2
[8] = system: DLD-1
[9] = system: RXF 631

Row | SMILES | GI50 [1] | GI50 [2] | GI50 [3] | GI50 [4] | GI50 [5] | GI50 [6] | GI50 [7] | GI50 [8] | GI50 [9]
1 | COC(=O)[C@@]12OC[C@]34C([C@@H](O)C1O)[C@@]1(C)CC(=O)C(O)=C(C)C1C[C@H]3OC(=O)[C@H](OC(=O)/C=C(/c1ccccc1)C(F)(F)F)[C@H]42 (stereo partly drawn) | 1.19 µM (inactive) | 2.65 µM (inactive) | 2.22 µM (inactive) | 4.19 µM (inactive) | 6.3 µM (inactive) | 9.1 µM (inactive) | 3.92 µM (inactive) | 5.41 µM (inactive) | 
2 | CC12C(=O)N(CCN)C(=O)C1C1c3ccccc3C2c2ccccc21 (stereo not drawn) | > 100 µM (inactive) | > 100 µM (inactive) | > 100 µM (inactive) | > 100 µM (inactive) | > 100 µM (inactive) | > 100 µM (inactive) | > 100 µM (inactive) | > 100 µM (inactive) | 
3 | CCOC(=O)C(C)(C)Oc1ccc2c(-c3ccc(Cl)cc3)cc(=O)oc2c1 | > 100 µM (inactive) | > 100 µM (inactive) |  | > 100 µM (inactive) |  |  | > 100 µM (inactive) | > 100 µM (inactive) | > 100 µM (inactive)
4 | CCOC(=O)C1=C(C)N(Cc2ccccc2)C(=O)C1CC#N (stereo not drawn) | > 100 µM (inactive) | 43.4 µM (inactive) | < 0.01 µM (active) | 45.1 µM (inactive) | 17 µM (inactive) | 37.2 µM (inactive) | > 100 µM (inactive) | 56.1 µM (inactive) | 
5 | CN(C)c1ccc(/C=C(/NC(=O)c2ccccc2)c2nc3cc(Cl)ccc3[nH]2)cc1 | 27.5 µM (inactive) | 30.1 µM (inactive) |  |  | 2.42 µM (inactive) | 63.1 µM (inactive) | 27.7 µM (inactive) | 34.4 µM (inactive) | 
6 | CCC1(O)C(=O)OCc2c1cc1n(c2=O)Cc2cc3ccc(CO)cc3nc2-1 (stereo not drawn) | 3.71 µM (inactive) | 26.7 µM (inactive) | 1.29 µM (inactive) | 1.82 µM (inactive) | 5.46 µM (inactive) |  | 13.5 µM (inactive) | 51.3 µM (inactive) | 3.31 µM (inactive)
7 | Nc1ccc(C(=O)N/C(=C\c2ccc3c(c2)OCO3)c2nc3c(O)nc(S)nc3[nH]2)cc1 | > 100 µM (inactive) | > 100 µM (inactive) | > 100 µM (inactive) |  |  | > 100 µM (inactive) | > 100 µM (inactive) | > 100 µM (inactive) | > 100 µM (inactive)
8 | CC(=O)C1CC2(c3ccccc3)C(=O)c3ccccc3N2O1 (stereo not drawn) | > 100 µM (inactive) | > 100 µM (inactive) | > 100 µM (inactive) | > 100 µM (inactive) | > 100 µM (inactive) | > 100 µM (inactive) | > 100 µM (inactive) | > 100 µM (inactive) | 
9 | CCC(C)CC(C)CC(C)/C=C(\C)C1=C(C)CC(C)(O)O1 (stereo not drawn) | > 100 µM (inactive) | 53 µM (inactive) |  | 64.1 µM (inactive) | > 100 µM (inactive) | 86.9 µM (inactive) |  | > 100 µM (inactive) | > 100 µM (inactive)
10 | Cn1c2ccccc2n2c(=O)c3c(c(C#N)c12)CCCC3 | > 100 µM (inactive) |  | > 100 µM (inactive) | > 100 µM (inactive) |  | > 100 µM (inactive) | > 100 µM (inactive) | > 100 µM (inactive) | 
11 | CC1SC2=NC3=C(c4ccccc4C3=O)C(c3ccc(F)cc3)N2C1=O (stereo not drawn) | > 100 µM (inactive) | 86.3 µM (inactive) | 89.7 µM (inactive) | 95.7 µM (inactive) |  |  | > 100 µM (inactive) | > 100 µM (inactive) | 
12 | CC[C@@H]1OC2(C)CC(S(=O)(=O)c3ccccc3)CC1O2 (stereo partly drawn) | > 100 µM (inactive) | > 100 µM (inactive) |  | > 100 µM (inactive) | > 100 µM (inactive) | > 100 µM (inactive) | > 100 µM (inactive) | > 100 µM (inactive) | > 100 µM (inactive)
13 | Nc1ccccc1[S+]([O-])c1ccccc1 (stereo not drawn) | > 100 µM (inactive) | > 100 µM (inactive) | > 100 µM (inactive) | > 100 µM (inactive) | > 100 µM (inactive) |  | > 100 µM (inactive) |  | 
14 | C/C(=C\c1ccccc1)C(=O)c1c(C)cc(C)cc1C | > 100 µM (inactive) | > 100 µM (inactive) | > 100 µM (inactive) | > 100 µM (inactive) | > 100 µM (inactive) |  | > 100 µM (inactive) | > 100 µM (inactive) | 
15 | OC1=CN=COc2ccccc21 | > 100 µM (inactive) | > 100 µM (inactive) |  | > 100 µM (inactive) |  | > 100 µM (inactive) | > 100 µM (inactive) | > 100 µM (inactive) | > 100 µM (inactive)
16 | CC(=O)CC(=O)NC=O | > 100 µM (inactive) | > 100 µM (inactive) | > 100 µM (inactive) | > 100 µM (inactive) | > 100 µM (inactive) | > 100 µM (inactive) | > 100 µM (inactive) | > 100 µM (inactive) | > 100 µM (inactive)
17 | COC1C2c3cc4c(cc3CC(C#N)(c3ccccc32)N1C(=O)c1ccccc1)OCO4 (stereo not drawn) |  | > 100 µM (inactive) | > 100 µM (inactive) | 70.6 µM (inactive) | > 100 µM (inactive) | > 100 µM (inactive) | > 100 µM (inactive) | > 100 µM (inactive) | > 100 µM (inactive)
18 | COc1ccc(CCc2ccccc2CC(=O)O)cc1 | > 100 µM (inactive) | > 100 µM (inactive) | > 100 µM (inactive) | > 100 µM (inactive) | > 100 µM (inactive) | > 100 µM (inactive) | > 100 µM (inactive) | > 100 µM (inactive) | 
19 | O=C1C=CN(C2OC(CO)C(O)C2O)C(=O)C1 (stereo not drawn) | 35.6 µM (inactive) |  |  |  | 557 µM (inactive) |  | 67.3 µM (inactive) | 24.6 µM (inactive) | 
20 | Cc1cc(Cl)ccc1NC1=NC(=O)C(CC(=O)Nc2ccc([N+](=O)[O-])cc2[N+](=O)[O-])S1 (stereo not drawn) | 25.9 µM (inactive) | 18.8 µM (inactive) | 20.6 µM (inactive) | 19.9 µM (inactive) |  | 28.6 µM (inactive) | 31.1 µM (inactive) | 34.1 µM (inactive) | 
21 | O=C(Cc1ccccc1)NS(=O)(=O)c1ccccc1 |  | > 100 µM (inactive) | > 100 µM (inactive) | > 100 µM (inactive) | > 100 µM (inactive) | > 100 µM (inactive) | > 100 µM (inactive) | > 100 µM (inactive) | > 100 µM (inactive)
22 | CC(=O)N(C(C)=O)c1c(N)n(C)c(=O)[nH]c1=O | > 100 µM (inactive) | > 100 µM (inactive) | > 100 µM (inactive) | > 100 µM (inactive) |  |  | > 100 µM (inactive) | > 100 µM (inactive) | > 100 µM (inactive)
23 | C[C@@H]1C2=CC[C@@]3(C)C(CCC3[C@H](C)[C@H]3C[C@@]4(C)O[C@@](c5cccnc5)(O3)OC4(C)C)[C@@H]2C2OC2[C@@]12CCC(=O)O2 (stereo partly drawn) | 41.2 µM (inactive) | 35.5 µM (inactive) |  | 33 µM (inactive) | 20.5 µM (inactive) | 85.1 µM (inactive) | 31.8 µM (inactive) | 49.1 µM (inactive) | 
24 | CC(=O)OC(C)(C)/C=C/C(=O)[C@](C)(O)[C@H]1[C@H](O)C[C@@]2(C)[C@@H]3CC=C4[C@@H](C=C(O)C(=O)C4(C)C)[C@]3(C)C(=O)C[C@]12C [CUCURBITACIN E] | 0.0807 µM (active) | 0.0339 µM (active) | 0.0356 µM (active) | 0.0715 µM (active) | 0.06 µM (active) | 0.0914 µM (active) | 0.0197 µM (active) | 0.0302 µM (active) | 0.0406 µM (active)
25 | Nc1ccc(Nc2nc(F)nc(-c3c4ccccc4c4n3CCS4)n2)cc1 | 16.5 µM (inactive) | 14.9 µM (inactive) | 4.91 µM (inactive) | 17.1 µM (inactive) | 13.8 µM (inactive) | 36.1 µM (inactive) | 18.1 µM (inactive) | 16.7 µM (inactive) | 15 µM (inactive)
26 | COCC(C)(C)/N=C/N1Cc2cc3ccccc3nc2C1 | > 100 µM (inactive) |  | > 100 µM (inactive) | > 100 µM (inactive) | > 100 µM (inactive) |  | > 100 µM (inactive) | > 100 µM (inactive) | 
